According to patent US20090306093A1, “METHOD FOR TREATING PATIENT HAVING BENIGN PROSTATE HYPERPLASIA” (KAOHSIUNG MEDICAL UNIVERSITY, priority 2008, published 2009):
Values joined by “and” are separate entries in the source; they are usually repeats but may differ in a detail not shown here. Equal entries are not always repeated.

Legend:
[1] = test system: phenylephrine (10 μM) pre-contracted rat isolated prostate; assay: Relaxation of phenylephrine pre-contracted rat isolated prostate strips (isometric tension)
Protocol: The rat isolated prostate tissue was prepared as previously described with modifications^[10]. Briefly, Wistar rats (300-400 g) were killed with pentobarbital sodium (30 mg/kg) and the ventral part of their prostates were quickly excised. […] O2 and 5% CO2.
Isometric tension was recorded with a force displacement transducer (UGO BASILE, Model 7004, Italy). After the equilibration period, the strips were primed twice by adding 10 μM of the agonist, phenylephrine, to reach 80-100% of maximum contraction. […] The relaxation on rat prostate by KMUP-1 (0.01-100 μM) and tamsulosin (0.001 nM-100 μM) were also tested by their combination with sildenafil (0.1 μM), respectively. In isolated prostate strips, while stable constriction to phenylephrine was reached, sildenafil (0.1 μM) was pre-incubation for 30 minutes, before the cumulative addition of KMUP-1 (0.01-100 μM) or tamsulosin (0.001 nM-100 μM) to isolated prostate strips. In another experiment, to examine the possible mechanism of action of KMUP-1, rat prostates were pretreated with ODQ (1H-[1,2,4]oxadiazolo[4,3-a]quinoxalin-1-one, 10 μM, sGC inhibitor), RP-8pCPT-cGMPs (10 μM, PKG inhibitor), glibenclamide (10 μM, KATP channel blocker), 4-AP (4-aminopyridine, 100 μM, voltage-dependent K^+ channel blocker), apamin (1 μM, Ca^2+-dependent K^+ channel blocker) and charybdotoxin (ChTX) (0.1 μM, Ca^2+-dependent K^+ channel blocker) for 30 minutes before addition of KMUP-1 (100 μM).

cGMP = assay: Determination of cGMP in rat isolated prostate (radioimmunoassay); conditions: for cGMP levels: 1 hour
Protocol: Isolated prostate strips from Wistar rats were prepared to determine prostate levels of cGMP and cAMP. Briefly, prostate strips were respectively incubated with KMUP-1 (10-100 μM), sildenafil (100 μM), and zaprinast (100 μM) in 10 mL Tyrode solution aerated with 95% O2 and 5% CO2 for 1 hour. To examine the possible mechanisms of action of KMUP-1, the rat prostate was pretreated with ODQ (10 μM, sGC inhibitor) and SQ22536 (9-(tetrahydro-2-furanyl)-9H-purin-6-amine, 10 μM, adenylyl cyclase inhibitor) for 30 minutes before KMUP-1 was added. After the incubation, the prostate tissues were extracted with 1 mL of 0.1 N HCl. The extracts were then lyophilized for a further measurement of cyclic GMP or cyclic AMP of each sample, using commercially available radioimmunoassay kits (Amersham Pharmacia Biotech, Buckinghamshire, England).

PDE5A = assay: Western blot of PDE5A expression in rat prostate; conditions: KMUP-1 10-100 μM
Protocol: (§1) Prostate strips were incubated with KMUP-1 (10-100 μM), sildenafil (100 μM) and zaprinast (100 μM) in 10 mL Tyrode solution aerated with 95% O2 and 5% CO2 for 1 hour. To examine the possible mechanisms of KMUP-1 action, the rat prostate were pretreated with ODQ (10 μM), SQ22536 (10 μM) and RP-8pCPT-cGMPs (10 μM) for 30 minutes prior to the addition of KMUP-1 (100 μM).
(§2) In order to examine the expression of Rho kinase in prostate, the prostate strips were pre-incubated with phenylephrine (10 μM) for 30 minutes. After a pre-treatment of phenylephrine, KMUP-1 (10-100 μM) and Y-27632 (10 μM) were further incubated for 30 minutes. After the incubation time, the prostate were extracted with protein extraction reagent (Pierce Biotechnology, Inc., Rockford, Ill., USA.). The PZ-HPV-7 cells were incubated with and without KMUP-1 (0.1-10 μM) at 30 minutes, 8 and 24 hours. They were then washed rapidly with ice-cold PBS, incubated with protein extraction reagent, and scraped from the plates. The prostate tissues and cells were sonicated three times for 10 second each time and centrifuged at 13,000 rpm at 4° C. for 30 minutes. The protein concentrations of supernatants were determined, using bovine serum albumin as the standard. […] The intensity of the bands was measured by densitometry.

PKA = assay: Western blot of PKA expression in rat prostate
Protocol: as §1, §2

[2] = test system: PZ-HPV-7 human prostatic epithelial cells; assay: Cell cycle distribution by flow cytometry; type: cell-based; conditions: 48 hours
Protocol: PZ-HPV-7 cells were incubated for 2 days with or without KMUP-1 (0.1-10 μM), after trypsinized for 10 minutes with 0.5% trypsin supplemented with 5.3 mM EDTA in HBBS. The cell suspension was then centrifuged at 200 g for 5 minutes at 4° C., resuspended in 1 mL ice-cold HBSS and fixed by the drop-wise addition of 2 mL of ice-cold methanol followed by continuously shaking. The processed cells were kept on ice for 30 minutes and then cells were collected by centrifugation at 90 g for 5 min and stained with propidium iodide (50 μg/mL, Sigma). RNase A (Promega, Madison, Wis.) was then added to a final concentration of 100 U/mL. Samples were stored in the dark for at least 30 minutes before an analysis on a Coulter Epics XL-MCL flow cytometer. […]

With `Cn1c(=O)c2c(ncn2CCN2CCN(c3ccccc3Cl)CC2)n(C)c1=O` [KMUP-1, 7-[2-[4-(2-Chlorobenzene)piperazinyl]ethyl]-1,3-dimethyl xanthine] the relaxation ([1]; 10 μM, 1 hour, phenylephrine 10 μM pre-contracted) was 110.00±5.09%, the relaxation activity ([1]; 100 μM combined with sildenafil 0.1 μM) was 190.00±10.14% and the relaxation ability ([1]; 100 μM, phenylephrine 10 μM pre-contracted) was 179.00±5.35% and 179.00±5.3%. The relaxation ([1]; KMUP-1 100 μM, pre-incubation with ODQ 10 μM) was 112.50±7.84%, the relaxation ([1]; KMUP-1 100 μM, pre-incubation with RP-8pCPT-cGMPs 10 μM) was 128.00±4.41% and the relaxation ([1]; KMUP-1 100 μM, with 4-AP 100 μM) was 122.00±3.74%. The relaxation ([1]; KMUP-1 100 μM, with apamin 1 μM) was 126.00±9.09%, the relaxation ([1]; KMUP-1 100 μM, with charybdotoxin 0.1 μM) was 138.00±7.01% and the relaxation ([1]; KMUP-1 100 μM, with glibenclamide 10 μM) was 115.00±7.07%. For the same compound, the cGMP levels (cGMP; 10 μM) was 3.50±0.58 pmol mg^−1 protein, the cGMP levels (cGMP; 100 μM) was 7.50±0.79 pmol mg^−1 protein and the “accumulation of cGMP” value (cGMP; KMUP-1 100 μM in the presence of ODQ 10 μM) was 2.54±0.73 pmol mg^−1 protein. The “expression of PDE5A” value (PDE5A) was “mildly inhibits”, the “expression of PKA” value (PKA; 100 μM) was “significantly induces” and the “expression of PKA” value (PKA; KMUP-1 100 μM with SQ22536 10 μM) was “reversed”. For the same compound, the “increase of G0/G1 phase compared with vehicle control” value (“increase of G0/G1 phase” below) ([2]; 0.1 μM) was 7±1.54%, the “increase of G0/G1 phase” value ([2]; 1 μM) was 10±2.07% and the “increase of G0/G1 phase” value ([2]; 10 μM) was 12.00±0.88%.
